Reference: ChEMBL document CHEMBL6083213, “Discovery of benzimidazole-2-amide BNZ-111 as new tubulin inhibitor” (Bioorg Med Chem Lett, 2024)
In brackets after ≈: the same amount, converted by molar mass. One block for each compound: values may come before it. Activity calls are given as the source filed them. The rule behind the calls is not given here.

What was measured:
NCI-H1299 [1] = experiment: Anticancer activity against human NCI-H1299 cells assessed as inhibition of cell growth at 1 uM incubated for 72 hrs by MTT assay relative to control; assay type: functional
NCI-H460 [2] = experiment: Anticancer activity against human NCI-H460 cells assessed as inhibition of cell growth at 1 uM incubated for 72 hrs by MTT assay relative to control; assay type: functional
A549 [3] = experiment: Anticancer activity against human A549 cells assessed as inhibition of cell growth at 1 uM incubated for 72 hrs by MTT assay relative to control; assay type: functional
[4] = Oral bioavailability in Sprague-Dawley rat at 10 mg/kg; assay type: ADME, organism-based; details: in vivo
[5] = Half life in Sprague-Dawley rat at 2 mg/kg, iv; assay type: ADME, organism-based; details: in vivo
[6] = AUC in Sprague-Dawley rat at 10 mg/kg, po; assay type: ADME, organism-based; details: in vivo
[7] = Cmax in Sprague-Dawley rat at 10 mg/kg, po; assay type: ADME, organism-based; details: in vivo
[8] = Clearance in Sprague-Dawley rat at 2 mg/kg, iv; assay type: ADME, organism-based; details: in vivo
[9] = Volume of distribution at steady state in Sprague-Dawley rat at 2 mg/kg, iv; assay type: ADME, organism-based; details: in vivo, read-out: Vdss
[10] = Solubility of compound in 1 % DMSO-PBS buffer; assay type: physicochemical
[11] = Stability in mouse plasma assessed as parent compound remaining after 4 hrs; assay type: ADME, cell-free; details: read-out: Stability
HFL1 = experiment: Cytotoxicity against human HFL1 cells incubated for 24 hrs; assay type: toxicity, cell-based; details: hfl1, 24 h
Vero = experiment: Cytotoxicity against african green monkey Vero cells incubated for 24 hrs; assay type: toxicity, cell-based; details: chlorocebus sabaeus
[12] = Stability in rat plasma assessed as parent compound remaining after 4 hrs; assay type: ADME, cell-free; details: read-out: Stability
NCI-H460 [13] = experiment: Anticancer activity against human NCI-H460 cells incubated for 24; assay type: functional, cell-based
[14] = Microsomal stability in rat liver microsomes assessed as parent compound remaining measured after 30 mins; assay type: ADME, Microsome; details: read-out: Stability
A549 [15] = experiment: Anticancer activity against human A549 cells incubated for 24; assay type: functional, cell-based
[16] = Cytotoxicity against human HeyA8-MDR cells incubated for 24 hrs; assay type: toxicity, cell-based
L929 = experiment: Cytotoxicity against mouse L929 cells incubated for 24 hrs; assay type: toxicity, cell-based; details: l929, 24 h
HEY A8 = experiment: Anticancer activity against human HEY A8 cells incubated for 24; assay type: functional, cell-based
[17] = Plasma protein binding in human; assay type: ADME, cell-free; details: read-out: PPB (converted)
hERG (KCNH2) = hERG (KCNH2) (Homo sapiens, UniProt Q12809); experiment: Inhibition of hERG at 10 uM relative to control; assay type: toxicity
[18] = Microsomal stability in mouse liver microsomes assessed as parent compound remaining measured after 30 mins; assay type: ADME, Microsome; details: read-out: Stability
NCI-H1299 [19] = experiment: Anticancer activity against human NCI-H1299 cells incubated for 24; assay type: functional, cell-based
A2780 = experiment: Anticancer activity against human A2780 cells incubated for 24; assay type: functional, cell-based
CHO-K1 = experiment: Cytotoxicity against CHO-K1 cells incubated for 24 hrs; assay type: toxicity, cell-based, Cricetulus griseus; details: chinese hamster, cho-k1, 24 h
[20] = Cytotoxicity against human A2780/CP20 cells incubated for 24 hrs; assay type: toxicity, cell-based; details: a2780/cp20, 24 h
[21] = Stability in human plasma assessed as parent compound remaining after 4 hrs; assay type: ADME, cell-free; details: read-out: Stability
HeyA8-MDR = experiment: Antitumor activity against human HeyA8-MDR cells xenografted in mouse assessed as tumor growth inhibition; assay type: functional, cell-based
[22] = Cytotoxicity against human SKOV3/TR cells incubated for 24 hrs; assay type: toxicity, cell-based
[23] = Microsomal stability in human liver microsomes assessed as parent compound remaining measured after 30 mins; assay type: ADME, Microsome; details: read-out: Stability
[24] = Plasma protein binding in mouse; assay type: ADME, cell-free; details: read-out: PPB (converted)
NIH3T3 = experiment: Cytotoxicity against mouse NIH3T3 cells incubated for 24 hrs; assay type: toxicity, cell-based; details: nih3t3, 24 h
[25] = Cytotoxicity against human SKOV3.ip1 cells incubated for 24 hrs; assay type: toxicity, cell-based; details: skov3.ip1, 24 h

Chain of hERG (KCNH2) (Q12809 whole entry): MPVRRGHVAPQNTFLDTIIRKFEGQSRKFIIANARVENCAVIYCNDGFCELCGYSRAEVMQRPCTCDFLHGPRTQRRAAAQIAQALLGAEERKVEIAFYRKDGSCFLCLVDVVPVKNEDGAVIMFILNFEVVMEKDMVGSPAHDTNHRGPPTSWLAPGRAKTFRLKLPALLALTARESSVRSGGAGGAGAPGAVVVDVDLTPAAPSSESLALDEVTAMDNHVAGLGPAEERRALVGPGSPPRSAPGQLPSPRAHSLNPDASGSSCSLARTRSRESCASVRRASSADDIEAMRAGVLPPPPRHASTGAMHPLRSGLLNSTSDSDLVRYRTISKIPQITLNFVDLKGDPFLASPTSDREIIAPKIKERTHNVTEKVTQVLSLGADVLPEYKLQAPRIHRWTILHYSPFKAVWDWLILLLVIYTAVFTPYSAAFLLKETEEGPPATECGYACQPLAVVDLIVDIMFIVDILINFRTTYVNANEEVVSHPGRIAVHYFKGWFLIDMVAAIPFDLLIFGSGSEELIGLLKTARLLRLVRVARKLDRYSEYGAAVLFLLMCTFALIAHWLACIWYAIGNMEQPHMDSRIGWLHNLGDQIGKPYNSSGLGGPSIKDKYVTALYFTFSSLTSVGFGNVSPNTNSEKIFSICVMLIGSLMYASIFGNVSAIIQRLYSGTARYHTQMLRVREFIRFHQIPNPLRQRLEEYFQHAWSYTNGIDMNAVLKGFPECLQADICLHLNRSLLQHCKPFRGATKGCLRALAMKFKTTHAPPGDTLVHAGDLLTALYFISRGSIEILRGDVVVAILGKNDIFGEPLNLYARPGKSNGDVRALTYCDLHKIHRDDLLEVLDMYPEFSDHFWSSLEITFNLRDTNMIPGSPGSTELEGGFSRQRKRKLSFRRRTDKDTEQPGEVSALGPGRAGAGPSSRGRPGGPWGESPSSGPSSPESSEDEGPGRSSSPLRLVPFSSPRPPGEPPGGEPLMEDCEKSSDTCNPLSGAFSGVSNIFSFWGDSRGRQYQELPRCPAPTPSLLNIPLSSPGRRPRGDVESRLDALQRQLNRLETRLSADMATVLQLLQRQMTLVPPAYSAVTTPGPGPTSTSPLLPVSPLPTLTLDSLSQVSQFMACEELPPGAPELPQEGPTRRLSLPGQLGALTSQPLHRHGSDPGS

SMILES: CCCOc1ccc2c(c1)nc(NC(=O)OC)n2C
inhibition at 1 µM (NCI-H1299 [1]): 31%
inhibition at 1 µM (NCI-H460 [2]): 10%
inhibition at 1 µM (A549 [3]): 23%

SMILES: CCCOc1ccc2nc(NS(=O)(=O)CC)[nH]c2c1
inhibition at 1 µM (NCI-H1299 [1]): 9%
inhibition at 1 µM (NCI-H460 [2]): 6%
inhibition at 1 µM (A549 [3]): 4%

SMILES: CCCOc1ccc2nc(NC(=O)OC)n(C)c2c1
inhibition at 1 µM (NCI-H1299 [1]): 19%
inhibition at 1 µM (NCI-H460 [2]): 10%
inhibition at 1 µM (A549 [3]): 10%

SMILES: CCCOc1cc2[nH]c(NC(=O)CC)nc2cc1OC
inhibition at 1 µM (NCI-H1299 [1]): 11%
inhibition at 1 µM (NCI-H460 [2]): 14%
inhibition at 1 µM (A549 [3]): 10%

SMILES: COC(=O)Nc1nc2cc(C(=O)c3ccccc3)ccc2[nH]1 [MEBENDAZOLE]
inhibition at 1 µM (NCI-H1299 [1]): 52%
inhibition at 1 µM (NCI-H460 [2]): 46%
inhibition at 1 µM (A549 [3]): 48%

bioavailability [4]: 2.6%
half-life [5]: 27 h
AUC [6]: 10 ng·h/mL
Cmax [7]: 10 ng/mL
clearance [8]: 350 mL/min/kg
Vd [9]: 413 L/kg
SMILES: CCCOc1ccc2nc(NC(=O)OC)[nH]c2c1 [OXIBENDAZOLE]
inhibition at 1 µM (NCI-H1299 [1]): 65%
inhibition at 1 µM (NCI-H460 [2]): 47%
inhibition at 1 µM (A549 [3]): 58%

bioavailability [4]: 44%
half-life [5]: 0.25 h
AUC [6]: 590 ng·h/mL
Cmax [7]: 580 ng/mL
clearance [8]: 132 mL/min/kg
Vd [9]: 2.8 L/kg
SMILES: CCCOc1ccc2nc(NC(=O)NC)[nH]c2c1
inhibition at 1 µM (NCI-H1299 [1]): 65%
inhibition at 1 µM (NCI-H460 [2]): 54%
inhibition at 1 µM (A549 [3]): 59%

SMILES: CCCOc1cc2[nH]c(NC(=O)CC)nc2cc1Cl
inhibition at 1 µM (NCI-H1299 [1]): 55%
inhibition at 1 µM (NCI-H460 [2]): 60%
inhibition at 1 µM (A549 [3]): 58%

SMILES: CCCCc1ccc2[nH]c(NC(=O)OC)nc2c1 [PARBENDAZOLE]
inhibition at 1 µM (NCI-H1299 [1]): 37%
inhibition at 1 µM (NCI-H460 [2]): 27%
inhibition at 1 µM (A549 [3]): 47%

SMILES: CC(=O)O[C@H]1C(=O)[C@@]2(C)[C@H]([C@H](OC(=O)c3ccccc3)[C@]3(O)C[C@H](OC(=O)[C@H](O)[C@@H](NC(=O)c4ccccc4)c4ccccc4)C(C)=C1C3(C)C)[C@]1(OC(C)=O)CO[C@@H]1C[C@@H]2O [PACLITAXEL]
inhibition at 1 µM (NCI-H1299 [1]): 73%
inhibition at 1 µM (NCI-H460 [2]): 63%
inhibition at 1 µM (A549 [3]): 74%

SMILES: CCCOc1ccc2nc(N)[nH]c2c1
inhibition at 1 µM (NCI-H1299 [1]): 24%
inhibition at 1 µM (NCI-H460 [2]): 13%
inhibition at 1 µM (A549 [3]): 8%

bioavailability [4]: 50%
solubility [10]: 53 µM (≈ 14.1 µg/mL)
remaining at 4 h [11]: 95%
remaining at 4 h [12]: 95%
remaining at 0.5 h [14]: 20%
fraction unbound [17]: 0.17
half-life [5]: 0.3 h
AUC [6]: 2140 ng·h/mL
remaining at 0.5 h [18]: 2.6%
Cmax [7]: 2760 ng/mL
remaining at 4 h [21]: > 99%
clearance [8]: 38.5 mL/min/kg
remaining at 0.5 h [23]: 29%
fraction unbound [24]: 0.15
Vd [9]: 0.6 L/kg
SMILES: CCCOc1cc2[nH]c(NC(=O)CC)nc2cc1F
Activity (HFL1): Non-toxic
Activity (Vero): Non-toxic
Activity (NCI-H460 [13]): Active
Activity (A549 [15]): Active
Activity [16]: Non-toxic
inhibition at 1 µM (NCI-H1299 [1]): 62%
Activity (L929): Non-toxic
Activity (HEY A8): Active
inhibition at 10 µM (hERG (KCNH2)): 29%
Activity (NCI-H1299 [19]): Active
Activity (A2780): Active
Activity (CHO-K1): Non-toxic
Activity [20]: Non-toxic
TGI (HeyA8-MDR): Active
Activity [22]: Non-toxic
inhibition at 1 µM (NCI-H460 [2]): 63%
inhibition at 1 µM (A549 [3]): 64%
Activity (NIH3T3): Non-toxic
Activity [25]: Non-toxic

SMILES: CCCOc1ccc2nc(N(C)C(=O)OC)[nH]c2c1
inhibition at 1 µM (NCI-H1299 [1]): 22%
inhibition at 1 µM (NCI-H460 [2]): 8%
inhibition at 1 µM (A549 [3]): 0%

SMILES: COC(=O)Nc1nc2cc(Sc3ccccc3)ccc2[nH]1 [FENBENDAZOLE]
inhibition at 1 µM (NCI-H1299 [1]): 59%
inhibition at 1 µM (NCI-H460 [2]): 43%
inhibition at 1 µM (A549 [3]): 44%

SMILES: CCCOc1cc2[nH]c(NC(=O)CC)nc2cc1C
inhibition at 1 µM (NCI-H1299 [1]): 26%
inhibition at 1 µM (NCI-H460 [2]): 40%
inhibition at 1 µM (A549 [3]): 34%

bioavailability [4]: 25%
half-life [5]: 18.6 h
AUC [6]: 930 ng·h/mL
Cmax [7]: 1560 ng/mL
clearance [8]: 45.5 mL/min/kg
Vd [9]: 6.4 L/kg
SMILES: CCCOc1ccc2nc(NC(=O)CC)[nH]c2c1
inhibition at 1 µM (NCI-H1299 [1]): 64%
inhibition at 1 µM (NCI-H460 [2]): 46%
inhibition at 1 µM (A549 [3]): 58%

SMILES: COC(=O)Nc1nc2ccc(OCCC(F)(F)F)cc2[nH]1
inhibition at 1 µM (NCI-H1299 [1]): 24%
inhibition at 1 µM (NCI-H460 [2]): 17%
inhibition at 1 µM (A549 [3]): 18%

SMILES: CCOc1ccc2nc(NC(=O)OC)[nH]c2c1
inhibition at 1 µM (NCI-H1299 [1]): 23%
inhibition at 1 µM (NCI-H460 [2]): 27%
inhibition at 1 µM (A549 [3]): 25%

SMILES: COC(=O)Nc1nc2ccc(OCCCF)cc2[nH]1
inhibition at 1 µM (NCI-H1299 [1]): 25%
inhibition at 1 µM (NCI-H460 [2]): 20%
inhibition at 1 µM (A549 [3]): 28%

SMILES: CCCCOc1ccc2nc(NC(=O)OC)[nH]c2c1
inhibition at 1 µM (NCI-H1299 [1]): 39%
inhibition at 1 µM (NCI-H460 [2]): 31%
inhibition at 1 µM (A549 [3]): 30%
